{"source": "patent US4713445A", "about": "“Renin inhibitors and treatments using them” (priority 1983, dated 1987)", "note": "*1 amine or outer side, *2 acyl side, *3 side chain or, on linkers, in order; H or OH if unused. Where a SMILES comes first, the peptide text is derived from it. [ ]: non-standard residue; d: D form. The star is where a group is joined. Leuψ(CH2NH)ValIleHisOH = CC[C@H](C)[C@H](NC(=O)[C@@H](NC[C@H](CC(C)C)N*)C(C)C)C(=O)N[C@@H](Cc1c[nH]cn1)C(=O)O; X1 = CC(C)C[C@H](N[*:1])[C@@H](O)C[C@H](C(=O)[*:2])C(C)C; Boc = CC(C)(C)OC(=O)*"}
{"target": "T1, human renin (Homo sapiens, UniProt P00797)", "T1 construct": "angiotensin-I released from human renin substrate by human resin in human plasma; from tissue; host or cells: human plasma (containing EDTA)", "T1 sequence (P00797 67-406)": "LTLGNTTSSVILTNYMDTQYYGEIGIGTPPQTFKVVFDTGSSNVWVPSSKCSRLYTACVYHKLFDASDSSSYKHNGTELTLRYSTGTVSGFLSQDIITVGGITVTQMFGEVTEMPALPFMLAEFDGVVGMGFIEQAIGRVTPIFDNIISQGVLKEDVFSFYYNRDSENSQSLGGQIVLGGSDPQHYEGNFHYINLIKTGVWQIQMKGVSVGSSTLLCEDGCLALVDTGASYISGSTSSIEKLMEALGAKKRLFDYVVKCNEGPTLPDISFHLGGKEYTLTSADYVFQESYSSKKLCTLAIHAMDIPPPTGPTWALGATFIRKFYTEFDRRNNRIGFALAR", "assay": "human renin-renin substrate reaction in vitro; radioimmunoassay of angiotensin-I released in human plasma", "format": "biochemical", "conditions": "Table 2; read-out: IC50 μM v/s human renin", "excerpt": "(§1) Preliminary activity test results in the human […] substrate reaction in vitro are given, with comparative figures for the tetrapeptide analogue (III). […] The test results given herein are based on the methods described by J. A. Miller et al in Clinica Chimica Acta (1980) 101 5-15 and K. Poulsen and J. Jorgensen in J. Clin. Endocrinol. Metab. (1974) 39 816, and is based on the measurement, by radioimmunoassay, of angiotensin-I released from human renin substrate by human resin in human plasma. The inhibitor is dissolved in 0.01N HCl (10 μl) and added to hmman plasma (75 μl) containing EDTA, and angiotensin-I antibody (15 μl) in 3M-Tris/HCl buffer (pH 6.9). After incubation at 37° C. for 0-120 minutes, the enzymic reaction is quenched by the addition of ice-cold 0.25M Tris/HCl buffer (pH 7.4) containing 0.01% of bovine serum albumin. 125I-labelled angiotensin-I is added, followed by equilibration at 4° C. for 48 hours. Free and bound ligand are separated by the addition of dextrancoated charcoal, and the amount of bound radio-ligand determined in a gamma counter.", "units": {"IC50": "µM"}}
{"compound": "CC[C@H](C)[C@H](NC(=O)[C@@H](C[C@H](O)[C@H](CC(C)C)NC(=O)[C@H](Cc1c[nH]cn1)NC(=O)[C@H](Cc1ccccc1)NC(=O)OC(C)(C)C)C(C)C)C(=O)N[C@@H](Cc1c[nH]cn1)C(=O)OC", "note": "[Example LI] (Boc-FH[X1]IH-OMe)", "IC50": 0.0035}
{"compound": "CC[C@H](C)[C@H](NC(=O)[C@@H](C[C@H](O)[C@H](CC(C)C)NC(=O)[C@H](Cc1c[nH]cn1)NC(=O)[C@H](Cc1ccccc1)NC(=O)OC(C)(C)C)C(C)C)C(=O)OC", "note": "[Example L]", "IC50": 0.005}
{"compound": "CC[C@H](C)[C@H](NC(=O)[C@@H](C[C@H](O)[C@@H](N)CC(C)C)C(C)C)C(=O)N[C@@H](Cc1c[nH]cn1)C(=O)N[C@@H](CCCCN)C(=O)O", "note": "[Example XLI]", "IC50": 11}
{"target": "T1, human renin", "assay": "human renin-renin substrate reaction in vitro; radioimmunoassay of angiotensin-I released in human plasma", "format": "biochemical", "conditions": "Table 5; human renin-renin substrate reaction in vitro; read-out: IC50", "excerpt": "as §1", "units": {"IC50": "µM"}}
{"compound": "CC(C)C[C@@H](CN[C@@H](CC(C)C)C(=O)N[C@H](C(=O)N[C@@H](Cc1ccc(O)cc1)C(=O)O)C(C)C)NC(=O)[C@H](Cc1c[nH]cn1)NC(=O)[C@H](Cc1ccccc1)NC(=O)[C@@H]1CCCN1C(=O)[C@@H](N)Cc1c[nH]cn1", "note": "[Example I, H-His-Pro-Phe-His-Leu-reduced-Leu-Val-Tyr-OH]", "IC50": 1}
{"compound": "CC(C)C[C@@H](CN[C@@H](CC(C)C)C(=O)N[C@H](C(=O)N[C@@H](Cc1ccc(O)cc1)C(=O)O)C(C)C)NC(=O)[C@H](Cc1c[nH]cn1)NC(=O)[C@H](Cc1ccccc1)NC(=O)[C@@H]1CCCN1", "note": "[Example II, H-Pro-Phe-His-Leu-reduced-Leu-Val-Tyr-OH]", "IC50": 17}
{"compound": "CC(C)C[C@@H](CN([C@@H](CC(C)C)C(=O)N[C@H](C(=O)N[C@@H](Cc1ccc(O)cc1)C(=O)O)C(C)C)S(=O)(=O)c1ccccc1)NC(=O)[C@H](Cc1c[nH]cn1)NC(=O)[C@H](Cc1ccccc1)NC(=O)[C@@H]1CCCN1C(=O)[C@@H](N)Cc1c[nH]cn1", "note": "[Example III, H-His-Pro-Phe-His-Leu-reduced (SO2 Ph)-Leu-Val-Tyr-OH]", "IC50": 1.5}
{"compound": "CC(C)C[C@@H](CN[C@@H](CC(C)C)C(=O)N[C@H](C(=O)N[C@@H](Cc1ccc(O)cc1)C(=O)O)C(C)C)NC(=O)[C@H](Cc1c[nH]cn1)NC(=O)[C@H](Cc1ccccc1)NC(=O)[C@@H]1CCCN1C(=O)[C@H](N)Cc1c[nH]cn1", "note": "[Example IV, H-DHis-Pro-Phe-His-Leu-reduced-Leu-Val-Tyr-OH]", "IC50": 1}
{"compound": "CC(C)C[C@@H](CN[C@@H](Cc1ccccc1)C(=O)N[C@H](C(=O)N[C@@H](Cc1ccc(O)cc1)C(=O)O)C(C)C)NC(=O)[C@H](Cc1c[nH]cn1)NC(=O)[C@H](Cc1ccccc1)NC(=O)[C@@H]1CCCN1C(=O)[C@@H](N)Cc1c[nH]cn1", "note": "[Example IX]", "IC50": 2.5}
{"compound": "CC[C@H](C)[C@H](NC(=O)[C@@H](NC[C@H](CC(C)C)NC(=O)[C@H](Cc1c[nH]cn1)NC(=O)[C@H](Cc1ccccc1)NC(=O)[C@@H]1CCCN1C(=O)[C@@H](N)Cc1c[nH]cn1)C(C)C)C(=O)N[C@@H](Cc1c[nH]cn1)C(=O)O", "note": "[Example V, H-His-Pro-Phe-His-Leu-reduced-Val-Ile-His-OH] (H-HPFH-{Leuψ(CH2NH)ValIleHisOH})", "IC50": 0.26}
{"compound": "CC(C)[C@H](NC(=O)[C@H](Cc1ccccc1)NC[C@H](Cc1ccccc1)NC(=O)[C@H](Cc1c[nH]cn1)NC(=O)[C@H](Cc1ccccc1)NC(=O)[C@@H]1CCCN1C(=O)[C@@H](N)Cc1c[nH]cn1)C(=O)N[C@@H](Cc1ccc(O)cc1)C(=O)O", "note": "[Example VIII]", "IC50": 1.3}
{"compound": "CC(C)C[C@@H](CN[C@H](C(=O)N[C@H](C(=O)N[C@@H](Cc1ccc(O)cc1)C(=O)O)C(C)C)C(C)C)NC(=O)[C@H](Cc1c[nH]cn1)NC(=O)[C@H](Cc1ccccc1)NC(=O)[C@@H]1CCCN1C(=O)[C@@H](N)Cc1c[nH]cn1", "note": "[Example XII]", "IC50": 1.5}
{"compound": "CC(C)[C@H](NC(=O)[C@H](Cc1ccccc1)NC[C@H](Cc1ccccc1)NC(=O)[C@H](Cc1c[nH]cn1)NC(=O)[C@H](Cc1ccccc1)NC(=O)[C@@H]1CCCN1C(=O)[C@H](Cc1c[nH]cn1)NC(=O)[C@@H]1CCCN1)C(=O)N[C@@H](Cc1ccc(O)cc1)C(=O)N[C@@H](CCCCN)C(=O)O", "note": "[Example XI]", "IC50": 0.05}
